The structures appear in SMILES notation. Where two headings read alike, the source gives them in different places.

One may read the Ki as the equilibrium dissociation constant of an inhibitor or competing ligand from its target. The term IC50 denotes the concentration that inhibits the measured activity by half.

For data set [1] the following is noted: compound 150 µM, rat liver homogenate, 37 °C; cited from earlier work.
The nature of data set [2]: Spectrophotometric methylene blue H2S release in phosphate buffer with or without thiols. To be noted: 37 °C, with or without L-cysteine or glutathione.
Data set [3] concerns the target hCA IV. To be noted: stopped-flow CO2 hydrase assay, mean of three assays; cited from earlier work.
The subject of data set [4] is hCA IV. Kind of data set: Stopped-flow CO2 hydrase inhibition assay, hCA IV. The conditions noted are these: ratio of KIs. Type of data set: biochemical, human. How it is done:
(§1) An Applied Photophysics stopped-flow instrument (Applied Photophysics Ltd, Leatherhead, UK) was used for assaying the CA-catalyzed CO2 hydration activity. Phenol red (at a concentration of 0.2 mM) was used as an indicator, working at the absorbance maximum of 557 nm, with 20 mM Hepes (pH 7.5) as a buffer and 20 mM Na2SO4 for maintaining constant the ionic strength, following the initial rates of the CA-catalyzed CO2 hydration reaction for a period of 10−100 s. The CO2 concentrations ranged from 1.7 to 17 mM for the determination of the kinetic parameters and inhibition constants. For each inhibitor, at least six traces of the initial 5−10% of the reaction were used for determining the initial velocity. The uncatalyzed rates were determined in the same manner and subtracted from the total observed rates. Stock solutions of inhibitor (0.1 mM) were prepared in distilled−deionized water and dilutions up to 0.01 nM were made thereafter with the assay buffer. Inhibitor and enzyme solutions were preincubated together for 15 min at room temperature before the assay to allow for the formation of the E−I complex. The inhibition constants were obtained by nonlinear least-squares methods using Prism 7 (GraphPad Software, La Jolla, CA, USA) and the Cheng−Prusoff equation and represent the mean of at least three different determinations. The enzyme concentrations were in the range of 3–11 nM. All hCA isoforms were recombinant ones obtained in-house.

Data set [5] concerns A549. Kind of data set: Annexin V-FITC/PI dual staining apoptosis assay, A549. Type of data set: cell-based, human. How it is done: (§2) Phosphatidylserine externalization was evaluated using the Annexin V-FITC/PI apoptosis detection kit (BD Biosciences, USA), following the manufacturer’s guidelines. […] Subsequently, the cells were re-suspended in 100 μL of binding buffer with the addition of 1 μL of FITC-Annexin V, followed by a 30-min incubation at 4 °C. After rinsing in binding buffer, the cells were resuspended in 150 μL of binding buffer with the addition of 1 μL of DAPI (1 μg/μL in PBS). Flow cytometry analysis was performed using the BD FACS Canto II flow cytometer and the results were interpreted with FlowJo7.6.4 software (Tree Star, Ashland, USA).

Data set [6] addresses hCA XII. To be noted: stopped-flow CO2 hydrase assay, mean of three assays; cited from earlier work.
Data set [7] relates to HCT-116. The data set is described as follows: Annexin V-FITC/PI dual staining apoptosis assay, HCT-116. Type of data set: cell-based, human. The protocol: as §2
Data set [8] deals with HCT-116. Kind of data set: Cell cycle analysis by DNA flow cytometry, HCT-116. Type of data set: cell-based, human. The conditions noted are these: HCT-116, 24 h at IC50 concentration. The protocol:
(§3) Following treatment, cells were washed twice with ice-cold phosphate-buffered saline (PBS). Subsequently, the treated cells were harvested through centrifugation, fixed in ice-cold 70% (v/v) ethanol, washed with PBS, re-suspended in 100 μg/mL RNase, stained with 40 μg/mL propidium iodide (PI), and subjected to flow cytometry analysis using FACS Calibur (Becton Dickinson, Franklin Lakes, NJ, USA). The cell cycle distributions were calculated using CellQuest software 5.1 (Becton Dickinson).

The next data set has as its system MDA-MB-231. Kind of data set: MTT antiproliferative assay, MDA-MB-231. The conditions noted are these: Homo sapiens, normoxic conditions, 72 h. Type of data set: cell-based. How it is done:
(§4) These cell lines were cultured as monolayers in Dulbecco’s Modified Eagle’s Medium (DMEM) supplemented with 10% FBS, 2 mM l-glutamine, 100 U/mL penicillin, and 100 µg/mL streptomycin sulfate. […] The cells were sub-cultured using trypsin/EDTA solution, counted with a hemocytometer, and plated on 96-well plates (5000 cells/well), allowing them to form a semi-confluent monolayer overnight. […] DMSO (100 µL/well) was then added to dissolve the formazan crystals with shaking for 10 min, after which the absorb absorbance was read at 590 nm against no-cell blanks using a FLuo Star Optima microplate reader (BMG technologies, Ortenberg, Germany). Cell proliferation was calculated by comparing the OD values of the DMSO control wells with those of the samples, represented as % proliferation relative to the control.

The target of a further data set is hCA I. To be noted: stopped-flow CO2 hydrase assay, mean of three assays; cited from earlier work.
Data set [9] relates to hCA IX. The data set is described as follows: Stopped-flow CO2 hydrase inhibition assay, hCA IX. The format is biochemical, human. To be noted: ratio of KIs. How it is done:
as §1

In data set [10] the test system is A549. Kind of data set: MTT antiproliferative assay, A549. Type of data set: cell-based. To be noted: Homo sapiens, normoxic conditions, 72 h. The protocol:
The human triple-negative breast cancer cell line (MDA-MB-231), colon cancer cell line (HCT-116), and lung cancer cell line (A549) used in this study were obtained from the American Type Culture Collection (ATCC). These cell lines were cultured as monolayers in Dulbecco’s Modified Eagle’s Medium (DMEM) supplemented with 10% FBS, 2 mM l-glutamine, 100 U/mL penicillin, and 100 µg/mL streptomycin sulfate. […] The cells were sub-cultured using trypsin/EDTA solution, counted with a hemocytometer, and plated on 96-well plates (5000 cells/well), allowing them to form a semi-confluent monolayer overnight. […]. DMSO (100 µL/well) was then added to dissolve the formazan crystals with shaking for 10 min, after which the absorb absorbance was read at 590 nm against no-cell blanks using a FLuo Star Optima microplate reader (BMG technologies, Ortenberg, Germany). Cell proliferation was calculated by comparing the OD values of the DMSO control wells with those of the samples, represented as % proliferation relative to the control.
On the technique in general: Tetrazolium dyes change colour on reduction, which living cells bring about.

Data set [11] concerns HCT-116. The data set is described as follows: MTT antiproliferative assay, HCT-116 (normoxia and CoCl2-induced hypoxia). Type of data set: cell-based, human. The conditions noted are these: for IC50 Normoxia / IC50 Hypoxia / IC50: HCT-116; for IC50: Homo sapiens, MTT, 72 h. How it is done: as §4
The subject of data set [12] is A549. The data set is described as follows: Cell cycle analysis by DNA flow cytometry, A549. The format is cell-based, human. To be noted: A549, 24 h at IC50 concentration. How it is done: as §3
In general terms: Flow cytometry measures light scatter and fluorescence of single cells or particles in a stream.

Another data set addresses hCA II. The conditions noted are these: stopped-flow CO2 hydrase assay, mean of three assays; cited from earlier work.
For data set [13], the system named is hCA XII. The data set is described as follows: Stopped-flow CO2 hydrase inhibition assay, hCA XII. Type of data set: biochemical, human. The conditions noted are these: ratio of KIs. How it is done:
as §1

Data set [14] concerns the target hCA IX. To be noted: stopped-flow CO2 hydrase assay, mean of three assays; cited from earlier work.
The mark [15] stands for this setting: A549, treated at IC50 concentration.
Setting [16] is: HCT-116, treated at IC50 concentration.
Where [17] appears, read: chemically induced hypoxia with CoCl2·6H2O, read-out: IC50 HCT-116 (Hypoxia).
The mark [18] stands for this setting: normoxic conditions, read-out: IC50 HCT-116 (Normoxia).

`O=C(O)c1ccc(-c2cssc2=S)cc1` [Compound 3]: in data set [1], the “H2S release half-life t/2” value was 3.1 min and the “Time of peak H2S release” value is recorded as 20 min. For the same compound, the “H2S release in phosphate buffer” value in data set [2] was “minimal H2S release”.
With `NS(=O)(=O)c1ccc(CCN(Cc2cccc3ccccc23)C(=O)c2ccc(-c3cssc3=S)cc2)cc1` [Compound 30], the Ki was 0.244 µM on hCA IV [3], 0.007 µM at hCA XII [6], greater than 10 µM at hCA I and 4.46 µM on hCA II. The “H2S release half-life t/2” value in data set [1] is recorded as 5.0 min. Besides, in the data set with hCA IV [4], the “hCA II/hCA IV selectivity ratio” value is recorded as 18.3. The “Fold increase in overall apoptosis compared to untreated control” value is 19.9 fold with A549 [5] (A549) and 32.9 fold in the data set with HCT-116 [7] (HCT-116). Also, the “Early Apoptosis (Lower Right %)” value was 5.36% with A549 [5] (setting [15]) and 10.23% in the data set with HCT-116 [7] (setting [16]). The “Late Apoptosis (Upper Right %)” value with A549 [5] (setting [15]) turned out to be 18.59%; in the data set on HCT-116 [7] (setting [16]) it was 15.49%. In addition, the Total apoptosis in the data set with A549 [5] (setting [15]) is reported as 23.95%; with HCT-116 [7] (setting [16]), 25.72%. Besides, the “%G0-G1” value in the data set with HCT-116 [8] was 28.22%; with A549 [12] it was 22.93%. Besides, the “%G2/M” value in the data set on HCT-116 [8] was 31.39%; with A549 [12] it was 34.96%. For the same compound, the “%S” value in the data set with HCT-116 [8] is on record as 18.4%; in the data set on A549 [12] it was 20.77%. Besides, the “%Sub-G1” value with HCT-116 [8] worked out at 21.99%; in the data set with A549 [12], 21.34%. Moreover, the IC50 worked out at 9.59 ± 0.31 µM in the data set on MDA-MB-231, 1.78 ± 0.04 µM in the data set with A549 [10], 0.93 ± 0.02 µM in the data set on HCT-116 [11] (setting [17]) and 2.3 ± 0.14 µM with HCT-116 [11] (setting [18]). In the data set on hCA IX [9], the “hCA II/hCA IX selectivity ratio” value is 286. In addition, the “IC50 Normoxia / IC50 Hypoxia” value in the data set on HCT-116 [11] is 2.5. In addition, in the data set on HCT-116 [11] (HCT-116, chemically induced hypoxia), the “Increase in cytotoxicity under hypoxia compared to normoxia” value came out at 2 fold. The “Increase in activity concerning Staurosporine” value was found to be 10 fold in the data set on HCT-116 [11] (HCT-116, hypoxic conditions) and 5 fold in the data set on HCT-116 [11] (HCT-116, normoxic conditions).
Consider `CSc1ccc(CN(CCc2ccc(S(N)(=O)=O)cc2)C(=O)c2ccc(-c3cssc3=S)cc2)cc1` [Compound 29], for which the Ki is 0.404 µM at hCA IV [3]; 0.0462 µM at hCA IX [14]; 0.0084 µM at hCA XII [6]; 7.21 µM on hCA I; 9.65 µM on hCA II. Moreover, the “H2S release half-life t/2” value in data set [1] was 4.6 min. Also, the “hCA II/hCA XII selectivity ratio” value with hCA XII [13] came out at 1148. Besides, the “hCA II/hCA IV selectivity ratio” value with hCA IV [4] was 29.3. Also, the IC50 in the data set on MDA-MB-231 was determined as 3.25 ± 0.09 µM; in the data set on A549 [10] it was 60.9 ± 2.17 µM; in the data set on HCT-116 [11] (setting [17]) it was 12.7 ± 0.25 µM; in the data set on HCT-116 [11] (setting [18]) it was 10.1 ± 0.66 µM. The “hCA II/hCA IX selectivity ratio” value with hCA IX [9] is given as 209. For the same compound, the “IC50 Normoxia / IC50 Hypoxia” value in the data set on HCT-116 [11] is reported as 0.8.
Take `NS(=O)(=O)c1ccc(CCN(Cc2ccc(Br)cc2)C(=O)c2ccc(-c3cssc3=S)cc2)cc1` [Compound 22]: the “hCA II/hCA XII selectivity ratio” value in the data set with hCA XII [13] came out at 284. Moreover, the Ki at hCA IX [14] was 0.0191 µM; on hCA XII [6], 0.0129 µM; on hCA I, 7.7 µM; at hCA II, 3.66 µM. Besides, the “hCA II/hCA IV selectivity ratio” value in the data set on hCA IV [4] worked out at 104. The IC50 in the data set on MDA-MB-231 is 6.31 ± 0.22 µM; with A549 [10], 23.7 ± 1.61 µM; with HCT-116 [11] (setting [17]) it was 11.4 ± 0.22 µM; with HCT-116 [11] (setting [18]), 6.62 ± 0.21 µM. In addition, in the data set with hCA IX [9], the “hCA II/hCA IX selectivity ratio” value is on record as 192. Further, the “IC50 Normoxia / IC50 Hypoxia” value in the data set on HCT-116 [11] is recorded as 0.6.

(Values after paper PMC11432087, “Hydrogen Sulfide-Releasing Carbonic Anhydrase Inhibitors Effectively Suppress Cancer Cell Growth” (International Journal of Molecular Sciences, 2024).)
